Test results from US20240158466A1, “PEGYLATED P-SELECTIN INHIBITORS” (Beth Israel Deaconess Medical Center, Inc., priority 2021, published 2024).

Legend:
[1] = tested on: hemostasis; assay: Tail vein transection bleeding time; assay type: in vivo, mouse; settings: PG-6 8 μmol/kg or enoxaparin (LMWH) 6 mg/kg intravenous, 5 min prior to transection
Procedure: Hemostasis was assessed using a tail vein transection model to determine bleeding time.^63 Mice were anesthetized with ketamine and xylazine by intraperitoneal injection and placed on a warming mat at 37° C. Sterile saline, enoxaparin (6 mg/kg), or PG-6 in 125 μL of sterile saline was injected into the penile vein. Five minutes after administration of test compound, the lateral tail vein was transected with a number 11 scalpel blade at a tail width of 2.3 mm and immediately submerged in 37° C. phosphate buffered saline. The bleeding time was determined at that instant when bleeding had ceased for 30 seconds. Animals were excluded if arterial bleeding was present.

[2] = tested on: venous thrombus; assay: Murine model of non-occlusive venous thrombosis (electrolytic injury of inferior vena cava); assay type: in vivo, C57BL/6 mice
Procedure: Enoxaparin was administered subcutaneously (6 mg/kg) 4 hours prior and 24 hours after electrolytic injury as a clinically relevant control. […] Venous side branches were ligated or cauterized, while posterior branches were left patent. A 25-gauge stainless steel needle, attached to a silver-coated copper wire was inserted into the exposed caudal vena cava and positioned against the anterior wall (anode). A second wire was implanted subcutaneously to complete the circuit (cathode) and a 250 μAmps current applied for 15 min. Subsequently, the needle was removed and a cotton swab held in gentle contact with the puncture site to prevent bleeding. The vena cava and associated thrombus, immediately below the renal veins to just above the bifurcation, was excised 48 hours after injury for determination of wet thrombus weight and histological examination. Specimens were fixed overnight in 10% neutral buffered formalin, processed for paraffin embedding, and 5 μm sections stained with hematoxylin and eosin (H&E) or antibodies specific to neutrophils (Ly-6G, BD Biosciences) and monocytes (CD68, Abeam, Cambridge, MA). The circumference of the vein wall was imaged at 20× magnification and leukocyte infiltration was quantified in 3 representative animals/group, 5 to 10 sections/tissue sample.

[3] = tested on: vein wall injury; settings: rats; cited from earlier work
[4] = tested on: vein recanalization; settings: primate models; cited from earlier work
[5] = tested on: thrombus; settings: mice; cited from earlier work
[6] = tested on: platelet-monocyte aggregation; settings: humans; cited from earlier work
[7] = target: P-selectin on activated human platelets (human) (UniProt P16109); assay: cell-based or functional assay
[8] = target: P-selectin on activated mouse platelets (mouse) (UniProt Q01102); assay: cell-based or functional assay
[9] = target: T1, P-selectin (Homo sapiens, UniProt P16109); settings: synthetic P-selectin antagonists, literature refs 48,49; cited from earlier work
T1 sequence (P16109 42-830): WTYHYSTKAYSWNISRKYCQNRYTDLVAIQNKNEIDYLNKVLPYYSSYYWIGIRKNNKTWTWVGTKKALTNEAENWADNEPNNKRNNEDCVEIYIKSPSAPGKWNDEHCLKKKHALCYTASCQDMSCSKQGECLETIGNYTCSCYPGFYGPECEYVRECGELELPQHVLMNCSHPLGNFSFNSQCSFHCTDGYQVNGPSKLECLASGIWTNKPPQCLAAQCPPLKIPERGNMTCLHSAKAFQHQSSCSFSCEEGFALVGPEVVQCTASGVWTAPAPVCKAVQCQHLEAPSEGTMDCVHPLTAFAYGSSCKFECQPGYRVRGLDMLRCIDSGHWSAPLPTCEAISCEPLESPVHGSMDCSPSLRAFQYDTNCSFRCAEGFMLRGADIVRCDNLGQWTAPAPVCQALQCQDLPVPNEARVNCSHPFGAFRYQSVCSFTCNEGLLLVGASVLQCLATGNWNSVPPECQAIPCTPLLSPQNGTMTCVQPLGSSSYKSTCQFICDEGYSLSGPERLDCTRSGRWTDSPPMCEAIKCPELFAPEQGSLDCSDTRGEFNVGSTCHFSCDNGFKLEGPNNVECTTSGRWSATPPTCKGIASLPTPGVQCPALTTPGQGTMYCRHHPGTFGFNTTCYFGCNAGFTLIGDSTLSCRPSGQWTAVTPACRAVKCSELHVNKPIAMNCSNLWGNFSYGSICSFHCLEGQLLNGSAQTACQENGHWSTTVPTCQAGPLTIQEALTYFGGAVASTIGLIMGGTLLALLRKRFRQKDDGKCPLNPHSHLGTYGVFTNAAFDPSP

[10] = target: T1, P-selectin; settings: cited from earlier work
[11] = high affinity biologics; cited from earlier work

Sequence of P-selectin on activated mouse platelets (mouse) (Q01102 42-768): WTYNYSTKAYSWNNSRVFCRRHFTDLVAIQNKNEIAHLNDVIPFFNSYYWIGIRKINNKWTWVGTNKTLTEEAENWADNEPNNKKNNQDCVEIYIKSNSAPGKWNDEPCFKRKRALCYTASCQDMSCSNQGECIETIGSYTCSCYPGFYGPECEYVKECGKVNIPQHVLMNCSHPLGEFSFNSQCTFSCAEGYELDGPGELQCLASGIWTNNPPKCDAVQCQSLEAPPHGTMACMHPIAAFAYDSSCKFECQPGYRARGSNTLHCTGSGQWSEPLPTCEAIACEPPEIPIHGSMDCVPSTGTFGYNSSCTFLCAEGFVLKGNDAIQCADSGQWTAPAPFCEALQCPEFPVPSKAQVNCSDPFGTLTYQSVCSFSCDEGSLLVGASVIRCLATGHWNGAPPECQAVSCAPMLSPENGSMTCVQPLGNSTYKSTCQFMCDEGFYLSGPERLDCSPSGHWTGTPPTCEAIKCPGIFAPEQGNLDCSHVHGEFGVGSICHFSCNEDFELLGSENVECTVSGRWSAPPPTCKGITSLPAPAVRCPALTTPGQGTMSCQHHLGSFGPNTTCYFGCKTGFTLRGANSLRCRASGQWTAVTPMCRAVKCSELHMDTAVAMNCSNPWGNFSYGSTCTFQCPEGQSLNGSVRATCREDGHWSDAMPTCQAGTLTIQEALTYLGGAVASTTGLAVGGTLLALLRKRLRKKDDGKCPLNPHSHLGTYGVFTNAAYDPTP

Q: For enoxaparin, which “tail vein transection bleeding time” value [1] is on record?
A: The value was “prolonged”.

Q: And the “tail vein transection bleeding time” value ([1]; listed as LMWH)?
A: The value was “significant increase”.

Q: And the “thrombus formation / thrombus weight vs saline vehicle” value ([2]; 48 h after electrolytic injury, PG-6 8 μmol/kg IV, LMWH 6 mg/kg SC)?
A: Its value is “significant reduction”.

Q: And the “infiltrating CD68+ macrophages in vein wall” value ([2]; 48 h after thrombus induction)?
A: Its value is “significant reduction”.

Q: And the “infiltrating Ly6G+ neutrophils in vein wall” value ([2]; 48 h after thrombus induction)?
A: Its value is “significant reduction”.

Q: Which “wall stiffness, neointima formation, extravasation of inflammatory cells” value [3] does the source give for O=C(O)c1c(O)c(Cc2ccc(Cl)cc2)nc2c3c(ccc12)CCCC3 [PSI-697] here?
A: The value was “decreased”.

Q: And the vein recanalization [4]?
A: The vein recanalization was “enhanced”.

Q: What about the thrombus weight [5] of the same molecule?
A: Its thrombus weight is “reduced”.

Q: What about the “inhibition of platelet-monocyte aggregation in a phase I trial” value [6] of the same molecule?
A: The value was “failed to inhibit”.

Q: What does the source list for PEG40-GSnP-6 (PG-6) (peptide)?
A: human platelet-monocyte aggregates (flow cytometry, whole blood, PG-6 120 uM) [7]: 29 % reduction; human platelet-neutrophil aggregates (flow cytometry, whole blood, PG-6 120 uM) [7]: 42 % reduction; murine platelet-monocyte aggregates (flow cytometry, whole blood, PG-6 120 uM) [8]: 45 % reduction; murine platelet-neutrophil aggregates (flow cytometry, whole blood, PG-6 120 uM) [8]: 38 % reduction

Q: For C[C@@H]1O[C@@H](O[C@@H]2[C@@H](NC(=O)c3cc(=O)[nH]c(=O)[nH]3)C[C@@H](C(=O)NCCNC(=O)COCCOCC(=O)Nc3cc(S(=O)(=O)O)cc4cc(S(=O)(=O)O)cc(S(=O)(=O)O)c34)C[C@H]2O[C@@H]2O[C@H](CO)[C@H](O)[C@H](O[C@@H](CC3CCCCC3)C(=O)O)[C@H]2OC(=O)c2ccccc2)[C@@H](O)[C@H](O)[C@@H]1O [GMI-1070], which IC50 [9] is on record?
A: The IC50 was 423 µM.

Q: For O=C(O)c1c(O)c(C2(c3ccc(Cl)cc3)CC2)nc2c(C(F)(F)F)cccc12 [PSI-421, 2-[1-(4-chlorophenyl)cyclopropyl]-3-hydroxy-8-(trifluoromethyl)quinoline-4-carboxylic acid], which vein recanalization [4] is on record?
A: The vein recanalization was “enhanced”.

B1: PSGL-1: P-selectin glycoprotein ligand-1, native cognate ligand of P-selectin (protein, UniProt Q14242 42-412, looked up)
P-selectin glycoprotein …: QATEYEYLDYDFLPETEPPEMLRNSTDTTPLTGPGTPESTTVEPAARRSTGLDAGGAVTELTTELANMGNLSTDSAAMEIQTTQPAATEAQTTQPVPTEAQTTPLAATEAQTTRLTATEAQTTPLAATEAQTTPPAATEAQTTQPTGLEAQTTAPAAMEAQTTAPAAMEAQTTPPAAMEAQTTQTTAMEAQTTAPEATEAQTTQPTATEAQTTPLAAMEALSTEPSATEALSMEPTTKRGLFIPFSVSSVTHKGIPMAASNLSVNYPVGAPDHISVKQCLLAILILALVATIFFVCTVVLAVRLSRKGHMYPVRNYSPTEMVCISSLLPDGGEGPSATANGGLSKAKSPGLTPEPREDREGDDLTLHSFLP
Q: For B1, which Kd ([10]; reported values) is on record?
A: Its Kd is 0.07 to 0.3 µM.

B2: crizanlizumab: the only approved P-selectin inhibitor, an antibody (antibody, chains of the INN, looked up, V domains shown)
VH: QVQLVQSGAEVKKPGASVKVSCKVSGYTFTSYDINWVRQAPGKGLEWMGWIYPGDGSIKYNEKFKGRVTMTVDKSTDTAYMELSSLRSEDTAVYYCARRGEYGNYEGAMDYWGQGTLVTVSS
VL: DIQMTQSPSSLSASVGDRVTITCKASQSVDYDGHSYMNWYQQKPGKAPKLLIYAASNLESGVPSRFSGSGSGTDFTLTISSLQPEDFATYYCQQSDENPLTFGGGTKVEIK
Q: Which t1/2 [11] does the source give for B2 here?
A: The t1/2 was 10.6 days.

Q: What about the “Kd for P-selectin (in words)” value ([10]; approved antibody) of the same molecule?
A: Its value is “low nanomolar range”.
